Broadly, the logD is the decadic logarithm of the distribution of all forms, ionised or not, between an organic phase and buffer at a given pH. A lower logD goes with a more hydrophilic compound. By solubility is commonly meant the concentration that dissolves in the medium under given conditions. Read a low solubility as little dissolved substance.

The structures appear in SMILES notation.

In series [1] the test system is metastatic breast cancer cell lines (MDA-MB-231). Also noted: method as in PMID 21158420. The settings on record: cited from earlier work.
The nature of series [2]: LogD, octanol:PBS 1:1 at pH 7.4 (LC-MS/MS). The class given is physicochemical. The settings on record: octanol:PBS 1:1 at pH 7.4, 2 h at room temperature, triplicate. How it is done: To determine compound LogD, 10 mM of the compound 44 in DMSO was diluted 50-fold in a mixture of 1:1 octanol:PBS at pH 7.4. The mixture was gently shaken for 2 h at room temperature. Each sample was then diluted 50-fold in MeOH before LC-MS/MS analysis. For each compound, the test was performed in triplicate. LogD was determined as the logarithm of the ratio of product concentrations in octanol and PBS, respectively, determined by mass signals.

A short description of series [3]: Aqueous solubility in PBS at pH 7.4 (LC-MS/MS, AUC PBS/AUC MeOH x 200). The class given is physicochemical. As to conditions: aqueous buffer, kinetic from dmso stock; PBS at pH 7.4, 24 h shaking at room temperature, triplicate. How it is done: To determine compound solubility, 10 mM of the compound 44 in DMSO was diluted 50-fold either in PBS at pH 7.4 or in organic MeOH solvent in PP tubes (n = 3 for PBS and […]). The tubes were gently shaken for 24 h at room temperature. Then, the three PBS tubes and three of the six methanol tubes were centrifuged for 5 min at 4000 rpm and filtered over 0.45 μm filters (Millex-LH Millipore). The sample was diluted 50-fold in MeOH before LC-MS/MS analysis. The test was performed in triplicate. The solubility was determined by the following ratio: (AUCPBS/AUCMeOH) × 200.

With `C=C1CCC2C(C)(C)CCCC23C(=O)OCC13` (stereo not drawn) [Antrocin], the “activity against the proliferation of metastatic breast cancer cell lines” value in series [1] was “significant activity”.
With `CC(C)[C@H]1CO[C@]23CCNC[C@H]2CCC(=O)N13` [Compound 44, (3S,7aR,11aR)-3-isopropyl-3,6,7,7a,8,9,10,11-octahydro-2H-oxazolo[2,3-j][1,6]naphthyridin-5-one;formic acid], the pH-dependent lipophilicity (logD) at 2 h in series [2] is -1.72. In addition, in series [3], the solubility at 24 h was over 200 µM.

The values above are taken from paper PMC10054226, “Rapid and Efficient Access to Novel Bio-Inspired 3-Dimensional Tricyclic SpiroLactams as Privileged Structures via Meyers’ Lactamization” (Pharmaceuticals, 2023).
